# Data from patent US20130237582A1, “PHARMACEUTICAL COMBINATION OF PACLITAXEL AND A CDK INHIBITOR” (Piramal Enterprises Limited, priority 2010, published 2013).
# Entries after “also recorded” stand apart in the source; their conditions may differ.
# Key:
# [1] = tested on: cyclin D1; assay: Western blot of cell cycle proteins in MCF-7; type: cell-based, human; settings: 1.5 μM, 3, 6, 9, 12 and 24 h
# Procedure: (§1) MCF-7 cells were seeded in RPMI 1460 medium with 10% FCS in […] tissue culture flask and incubated for 24 h. These cells were treated with Compound A at 1.5 μM. At various time points viz. 3 h, 6 h, 9 h, 12 h and 24 h the cells were harvested (trypsinised) and lysed using lysis buffer. Protein content was estimated by Bradford method (Anal. Biochem., 1976, 72, 248-254). Lysate was applied to Sodium Dodecyl Sulphate-Polyacrylamide Gel Electrophoresis (SDS-PAGE) followed by Western blotting. Western blotting was done using specific antibodies to various cell cycle proteins viz. cyclin D1, CDK4, Rb and pRbSer780.
# [2] = tested on: pRbSer780; assay: Western blot of cell cycle proteins in MCF-7; type: cell-based, human; settings: 1.5 μM, 3, 6, 9, 12 and 24 h
# Procedure: as §1
# [3] = tested on: Rb; assay: Western blot of cell cycle proteins in MCF-7; type: cell-based, human; settings: 1.5 μM, 3, 6, 9, 12 and 24 h
# Procedure: as §1
# [4] = tested on: MCF-7, BT-549 and MDA-MB-231 cell lines; assay: Wound healing assay (cell migration); type: cell-based, human; settings: 1 μM and 3 μM; 24 h
# Procedure: The wound-healing assay is simple, inexpensive, and one of the earliest developed methods to study directional cell migration in vitro. This method mimics cell migration during wound healing in vivo.
# Protocol: • 1. MCF-7 cells were seeded in RPMI 1460 medium with 10% FCS in […] tissue culture flask and incubated for 24 h. • 2. The cells were trypsinized and seeded at a density of (0.5−2.0)×10^6 per well in a sterile 6 well plate. • 3. The plate was incubated for about 16 h in humidified CO2 incubator (5% CO2) at 37° C. under ambient oxygen levels. […] The required number of cells for a confluent monolayer depends on both the particular cell type and size of dishes. • 4. The cell monolayer in a straight line was scraped evenly to create a “scratch” with a pipette tip. The first image of the scratches was captured before addition of the compound. • 5. Compound A was added at concentrations of 1 μM and 3 μM. • 6. The plates were then kept in the incubator for further incubation. The time frame for incubation was determined empirically for the particular cell type used. • 7. After the incubation, the dish was placed under a phase contrast microscope (Zeiss Axio Observer, Germany), reference point was matched, the photographed regions of the first image were aligned and the second image was captured. For each image distances between one side of the scratch and the other were measured. […]
# [5] = tested on: MCF-7; assay: Cell cycle progression and apoptosis by flow cytometry (sub-G1); type: cell-based, human; settings: 4.5 μM
# Procedure: Time dependent effect of Compound A on cell cycle progression and apoptosis was evaluated in two breast cancer cell lines. The asynchronous human breast cancer cell lines MCF-7 (Her low, ER+, PR+, BRCA+/−allelic loss) and MDA-MB-231 cells were seeded in […] tissue culture flask at a density of 0.5×10^6 cells per flask in RPMI 1460 with 10% FCS. After 24 h, cells were treated with 4.5 μM of Compound A for 0, 24, 48 and 72 h. Both detached and adherent cells were harvested (trypsinised) at different time points as mentioned in Table 3. After washing in phosphate buffered saline (PBS), cells were fixed in ice-cold 70% ethanol and stored at −20° C. until further analysis.
# Before analysis, cells were washed twice with PBS to remove the fixative and re-suspended in PBS containing 50 μg/mL propidium iodide and 50 μg/mL RNaseA. After incubation at room temperature (20-35° C.) for 20 min, cells were analyzed using flow cytometry. A Becton Dickinson FACS Calibur flow cytometer (BD, USA) was used for these studies. The argon ion laser set at 488 nm was used as an excitation source. Cells with DNA content between 2n and 4n were designated as being in G1, S and G2/M phases of the cell cycle, as defined by the level of red fluorescence. […] The number of cells in each cell cycle compartment was expressed as a percentage of the total number of cells present. The results are shown in Table 3 and graphically presented in FIG. 3A (MCF-7 cell lines) and FIG. 3B (MDA-MB-231 cell lines).
# [6] = tested on: PARP; assay: Western blot for PARP cleavage in MDA-MB-468; type: cell-based, human; settings: 1.5 μM and 5 μM, 24 h
# Procedure: (§2) Correlation of PARP activity and cell cycle proteins cyclin D1, total Rb and pRb 780 were studied in two TNBC cell lines viz. MDA-MB-468 and MDA-MB-231. MDA-MB-231 and MDA-MB-468 cells were seeded in RPMI 1460 medium with 10% FCS in […] tissue culture flask and incubated for 24 h. These cells were treated at 1.5 μM and 5 μM Compound A for 24 h. The cells were harvested (trypsinised) and lysed using lysis buffer. Western blotting was carried out (Molecular Cancer […], 2007, 6, 918-925) using specific antibody to PAR, PARP, cyclin D1, CDK4 and pRb Ser 780.
# [7] = tested on: U251 pGL3; assay: Control luciferase reporter cell line (U251 pGL3); type: cell-based; settings: normoxia
# From the text: 1) U251 HRE: The genetically engineered cells U251 HRE which stably express a recombinant vector in which the Luciferase reporter gene is under control of three copies of a canonical HRE. 2) U251 pGL3: A control cell line contains the firefly Luciferase reporter gene under control of the constitutively active SV40 promoter and enhancer that helps to exclude compounds that inhibit Luciferase expression in a nonspecific and/or HIF-1-independent fashion. These cells expressed high basal levels of Luciferase in normoxic conditions and slightly lower levels in hypoxic conditions.
# U251 HRE cells were inoculated into 96 well white flat-bottomed plates at 10000-15000 cells/well in a volume of 180 μL and incubated for 24 h at 37° C., 5% CO2, and ambient O2. Compound A was tested at various concentrations viz. […] After 20 h incubation, the plates were removed and incubated at room temperature, 5% CO2, and ambient O2 for 1.5 h. 40 μL of Bright Glo Luciferase reagent (Promega™, USA) was added and after 3 min, luminescence was measured using a Polar Star Plate Reader (USA) in luminescence mode. Appropriate control cells (U251 pGL3) were treated identically, except that they were treated at 37° C., 5% CO2 and ambient O2. Compound toxicity was assayed using the MTS assay.
# [8] = molecular target: T1, PARP (Homo sapiens, UniProt P09874); assay: PARP enzyme activity measured by PAR polymers (Western blot), MDA-MB-468; type: cell-based; settings: 1.5 μM and 5 μM, 24 h, hydrochloride
# T1 construct: endogenous in cells; host or cells: MDA-MB-231; MDA-MB-468
# T1 sequence (P09874 2-1014 limits assumed): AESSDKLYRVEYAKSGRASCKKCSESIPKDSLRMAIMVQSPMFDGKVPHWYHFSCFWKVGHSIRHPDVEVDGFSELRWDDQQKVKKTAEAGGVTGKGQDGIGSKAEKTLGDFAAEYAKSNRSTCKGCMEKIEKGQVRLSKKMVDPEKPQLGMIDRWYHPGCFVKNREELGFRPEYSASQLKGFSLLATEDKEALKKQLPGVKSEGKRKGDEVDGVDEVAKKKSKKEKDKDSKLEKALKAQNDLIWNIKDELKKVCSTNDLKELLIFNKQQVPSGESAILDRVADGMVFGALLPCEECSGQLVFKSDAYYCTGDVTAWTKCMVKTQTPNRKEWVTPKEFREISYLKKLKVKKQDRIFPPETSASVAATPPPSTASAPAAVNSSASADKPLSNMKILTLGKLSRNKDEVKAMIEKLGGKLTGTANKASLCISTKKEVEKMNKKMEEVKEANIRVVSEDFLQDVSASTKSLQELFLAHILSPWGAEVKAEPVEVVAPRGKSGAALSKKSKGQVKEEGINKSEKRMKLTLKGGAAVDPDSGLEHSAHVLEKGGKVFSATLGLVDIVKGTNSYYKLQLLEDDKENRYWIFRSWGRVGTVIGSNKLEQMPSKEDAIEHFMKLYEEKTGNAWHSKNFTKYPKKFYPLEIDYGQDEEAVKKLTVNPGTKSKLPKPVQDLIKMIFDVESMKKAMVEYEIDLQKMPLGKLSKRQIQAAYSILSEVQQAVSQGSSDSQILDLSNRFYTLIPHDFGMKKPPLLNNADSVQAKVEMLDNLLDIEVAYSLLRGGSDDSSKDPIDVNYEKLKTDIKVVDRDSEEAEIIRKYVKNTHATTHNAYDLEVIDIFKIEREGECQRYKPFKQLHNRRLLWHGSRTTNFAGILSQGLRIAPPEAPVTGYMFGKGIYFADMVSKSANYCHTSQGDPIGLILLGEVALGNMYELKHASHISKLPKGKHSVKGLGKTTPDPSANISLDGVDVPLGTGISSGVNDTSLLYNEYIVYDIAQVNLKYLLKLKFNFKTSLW
# Procedure: To study PARP enzyme activity, PAR polymer formation was measured. MDA-MB-231 and MDA-MB-468 cells were seeded in RPMI 1460 medium with 10% FCS in […] tissue culture flask and incubated for 24 h. These cells were treated at 1.5 μM and 5 μM of Compound A for 24 h. The cells were harvested (trypsinised) and lysed using lysis buffer. Western blotting (Molecular Cancer Therapeutics, 2007, 6, 918-925) was done with specific antibody to PAR.
# as §2
smiles,measurement,setting,value
"CN1CC[C@@H](c2c(O)cc(O)c3c(=O)cc(-c4ccccc4Cl)oc23)[C@@H]1CO.Cl [Compound A, (+)-trans-2-(2-Chloro-phenyl)-5,7-dihydroxy-8-(2-hydroxymethyl-1-methyl-pyrrolidin-3-yl)-chromen-4-one hydrochloride]",Cyclin D1 expression,[1],decrease from 6 h onwards and significantly at 12 h
same,pRb expression,[2],decrease from 6 h onwards and significantly at 12 h
same,total Rb,[3],no significant change in total Rb except at 24 h
same,cell migration (wound healing),[4],potent anti migratory effect
same,% Apoptosis,[5]; 0 h,1%
same,% Apoptosis,[5]; 24 h,52%
same,% Apoptosis,[5]; 48 h,80%
same,% Apoptosis,[5]; 72 h,88%
same,PARP cleavage,[6],PARP cleavage was prominent
same,luciferase expression in control cell line,[7],did not inhibit the luciferase expression
same,PARP enzyme activity (PAR polymer formation),[8],the formation of PAR polymers is not inhibited; also recorded: no change in the PAR polymer formation
